Starred links: 1 amine or outer side, 2 acyl side, 3 side chain; linkers in the order of their positions; H or OH if unused. Non-standard residues stand in square brackets, D forms with d. Residues, ends and D or L forms follow the SMILES beside them. dPro(4R-(4-pyridylmethyl)) = O=C(O)[C@H]1C[C@@H](Cc2ccncc2)CN1; Trp(βS-Me,4-F) = C[C@@H](c1c[nH]c2cccc(F)c12)[C@H](N)C(=O)O; Bip(4'-CONH2) = NC(=O)c1ccc(-c2ccc(C[C@H](N)C(=O)O)cc2)cc1; Bip(4'-COOH) = N[C@@H](Cc1ccc(-c2ccc(C(=O)O)cc2)cc1)C(=O)O; Ala(1-bicyclo(1.1.1)pentyl) = N[C@@H](CC12CC(C1)C2)C(=O)O; dPro(4R-Bzl(4-F)) = O=C(O)[C@H]1C[C@@H](Cc2ccc(F)cc2)CN1; dPro(3S-(4-F-Bn)) = O=C(O)[C@@H]1NCC[C@@H]1Cc1ccc(F)cc1; X4 = O=C([C@H]1[C@@H](Cc2ccncc2)CCN1[*:1])[*:2]; Ala(pyrimidin-5-yl) = N[C@@H](Cc1cncnc1)C(=O)O; Phe(4-CONH2) = NC(=O)c1ccc(C[C@H](N)C(=O)O)cc1; Phe(4-COOH) = N[C@@H](Cc1ccc(C(=O)O)cc1)C(=O)O; Pro(cis-4-F) = O=C(O)[C@@H]1C[C@H](F)CN1; Ala(4-THP) = N[C@@H](CC1CCOCC1)C(=O)O; AEF = NCCOc1ccc(C[C@H](N)C(=O)O)cc1; Dap(CONH2) = NC(=O)NC[C@H](N)C(=O)O; cisHyp = O=C(O)[C@@H]1C[C@H](O)CN1; d(αMeD) = C[C@@](N)(CC(=O)O)C(=O)O; 2Pal = N[C@@H](Cc1ccccn1)C(=O)O; 4Pal = N[C@@H](Cc1ccncc1)C(=O)O; Dab = NCC[C@H](N)C(=O)O; Dap = NC[C@H](N)C(=O)O; Aib = CC(C)(N)C(=O)O
The compounds below were run against T1, IL-1β (Homo sapiens, UniProt P01584) (assay: IL-6 assay in MRC5 cells: inhibition of IL-1β induced IL-6 secretion (AlphaLISA)). Details: inhibition of IL-1β induced IL-6 secretion in MRC5 cells; read-out: MRC5 IC50.
T1 construct: purchased BioLegend 579404
T1 sequence (P01584 117-269): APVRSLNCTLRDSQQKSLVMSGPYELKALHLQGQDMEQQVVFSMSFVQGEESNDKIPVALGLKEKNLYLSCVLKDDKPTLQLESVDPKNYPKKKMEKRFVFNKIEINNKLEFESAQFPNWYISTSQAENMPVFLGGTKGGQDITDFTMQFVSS
Assay type: cell-based
Procedure: Procedure for IL-6 Assay in MRC5 Cells
The inhibition of IL-1β induced IL-6 secretion was evaluated in MRC5 cells. Recombinant human IL-1β (BioLegend 579404) at 2λ EC80 concentration was prepared in seeding medium. EMEM (ATCC 30-2003) with 0.025% BSA (Sigma A9576), 1×penicillin/streptomycin (Gibco 15070-063), 1×NEAA (Gibco 11140-050), 1×GlutaMax (Gibco 35050-061), and 1×sodium pyruvate (Gibco 11360-070), 20 μL of IL-1β was added to a 384-well collagen-coated plate (Corning 354664) and pre-incubated at ambient temperature for 1 hour with 200 nL of compound dispensed using an ECHO 555 liquid handler. Human lung fibroblast MRC5 cells (ATCC CCL-171) were added at a density of 3000 cells/20 μL per well. The cells were prepared by passaging three times in growth medium, EMEM (ATCC 30-2003) with 10% fetal bovine serum (Gibco 16140-071), 1×penicillin/streptomycin (Gibco 15070-063), 1×NEAA (Gibco 11140-050), 1×GlutaMax (Gibco 35050-061), and 1×sodium pyruvate (Gibco 11360-070) in collagen-coated T175 flasks (Greiner 661950) and harvested in seeding medium after 5 minutes of 0.25% trypsin-EDTA (Gibco 25200-056) digestion. The 384-well collagen-coated plate, containing a final volume of 40 μL, was incubated at 37° C., 5% CO2 overnight. 5 μL of the conditioned medium was transferred to a 384-well AlphaLISA plate (PerkinElmer 6005350) for detection of IL-6 using the human AlphaLISA IL-6 kit (PerkinElmer AL223F) as per the manufacturer's protocol. 20 μL of the acceptor bead/biotinylated antibody mix was added to the 384-well AlphaLISA plate and incubated for 1 hour at ambient temperature. The donor bead mix was protected from light and 25 μL was added to the plate and incubated for 30 minutes at ambient temperature. The AlphaLISA plate was read on an EnVision multimode plate reader (Perkin Elmer model 2104) using the AlphaScreen setting (laser exc at 680 nm and emis at […]). Dose response curves and IC50 values were analyzed using a 4-parameter logistic equation in Spotfire software (Tibco, Palo Alto, CA).

| Compound | IC50 |
| --- | --- |
| C[C@@H](c1c[nH]c2cccc(F)c12)[C@@H]1NC(=O)[C@@H]2C[C@H](O)CN2C(=O)CNC(=O)[C@H](Cc2ccc(C(=O)O)cc2)NC(=O)[C@H](Cc2ccncc2)NC(=O)[C@H](Cc2ccc(-c3ccc(C(=O)O)cc3)cc2)NC(=O)[C@H]2C[C@@H](Cc3ccncc3)CN2C(=O)CNC(=O)[C@H](CO)NC(=O)[C@H](CCC(N)=O)NC(=O)[C@H](Cc2cncnc2)NC(=O)[C@@](C)(CC(=O)O)NC(=O)[C@H](Cc2c[nH]c3ccccc23)NC(=O)[C@H](CO)NC(=O)C(C)(C)NC1=O [Example 161] (cyclo([Bip(4'-COOH)][4Pal][Phe(4-COOH)]G[cisHyp][Trp(βS-Me,4-F)][Aib]SW[d(αMeD)][Ala(pyrimidin-5-yl)]QSG[dPro(4R-(4-pyridylmethyl))])) | 0.019 nM |
| C[C@@H](c1c[nH]c2cccc(F)c12)[C@@H]1NC(=O)[C@@H]2C[C@H](F)CN2C(=O)CNC(=O)[C@H](Cc2ccc(C(=O)O)cc2)NC(=O)[C@H](Cc2ccncc2)NC(=O)[C@H](Cc2ccc(-c3ccc(C(=O)O)cc3)cc2)NC(=O)[C@H]2C[C@@H](Cc3ccc(F)cc3)CN2C(=O)CNC(=O)[C@H](CO)NC(=O)[C@H](CCC(N)=O)NC(=O)[C@H](Cc2ccccn2)NC(=O)C(C)(C)NC(=O)[C@H](Cc2c[nH]c3ccccc23)NC(=O)[C@H](CCC(=O)O)NC(=O)C(C)(C)NC1=O [Example 36] (cyclo([Bip(4'-COOH)][4Pal][Phe(4-COOH)]G[Pro(cis-4-F)][Trp(βS-Me,4-F)][Aib]EW[Aib][2Pal]QSG[dPro(4R-Bzl(4-F))])) | 0.054 nM |
| CC(=O)NCCOc1ccc(C[C@@H]2NC(=O)[C@H]3[C@@H](Cc4ccc(F)cc4)CCN3C(=O)CNC(=O)[C@H](CCN)NC(=O)[C@H](CCC(N)=O)NC(=O)[C@H](CC3CCOCC3)NC(=O)[C@@](C)(CC(=O)O)NC(=O)[C@H](Cc3c[nH]c4ccccc34)NC(=O)[C@H](CO)NC(=O)C(C)(C)NC(=O)[C@H]([C@@H](C)c3c[nH]c4cccc(F)c34)NC(=O)[C@@H]3C[C@H](F)CN3C(=O)CNC(=O)[C@H](Cc3ccc(C(N)=O)cc3)NC(=O)[C@H](CC34CC(C3)C4)NC2=O)cc1 [Example 373] (cyclo([AEF](Ac)[Ala(1-bicyclo(1.1.1)pentyl)][Phe(4-CONH2)]G[Pro(cis-4-F)][Trp(βS-Me,4-F)][Aib]SW[d(αMeD)][Ala(4-THP)]Q[Dab]G[dPro(3S-(4-F-Bn))])) | 0.012 nM |
| C[C@@H](c1c[nH]c2cccc(F)c12)[C@@H]1NC(=O)[C@@H]2C[C@H](F)CN2C(=O)CNC(=O)[C@H](Cc2ccc(C(=O)O)cc2)NC(=O)[C@H](CC23CC(C2)C3)NC(=O)[C@H](Cc2ccc(-c3ccc(C(=O)O)cc3)cc2)NC(=O)[C@H]2C[C@@H](Cc3ccncc3)CN2C(=O)CNC(=O)[C@H](CN)NC(=O)[C@H](CCC(N)=O)NC(=O)[C@H](Cc2cncnc2)NC(=O)C(C)(C)NC(=O)[C@H](Cc2c[nH]c3ccccc23)NC(=O)[C@H](CCC(=O)O)NC(=O)C(C)(C)NC1=O [Example 46] (cyclo([Bip(4'-COOH)][Ala(1-bicyclo(1.1.1)pentyl)][Phe(4-COOH)]G[Pro(cis-4-F)][Trp(βS-Me,4-F)][Aib]EW[Aib][Ala(pyrimidin-5-yl)]Q[Dap]G[dPro(4R-(4-pyridylmethyl))])) | 0.034 nM |

The next lines start with the values.

| IC50 | Compound |
| --- | --- |
| 0.021 nM | CO[C@H](C)[C@@H]1NC(=O)[C@@](C)(CC(=O)O)NC(=O)[C@H](Cc2c[nH]c3ccccc23)NC(=O)[C@H](CO)NC(=O)C(C)(C)NC(=O)[C@H]([C@@H](C)c2c[nH]c3cccc(F)c23)NC(=O)[C@@H]2C[C@H](F)CN2C(=O)CNC(=O)[C@H](Cc2ccc(C(=O)O)cc2)NC(=O)[C@H](Cc2ccncc2)NC(=O)[C@H](Cc2ccc(-c3ccc(C(=O)O)cc3)cc2)NC(=O)[C@H]2[C@@H](Cc3ccncc3)CCN2C(=O)CNC(=O)[C@H](CNC(N)=O)NC(=O)[C@H](CCC(N)=O)NC1=O [Example 228] (cyclo([Bip(4'-COOH)][4Pal][Phe(4-COOH)]G[Pro(cis-4-F)][Trp(βS-Me,4-F)][Aib]SW[d(αMeD)]T(Me)Q[Dap(CONH2)]G[X4])) |
| 0.016 nM | C[C@@H](c1c[nH]c2cccc(F)c12)[C@@H]1NC(=O)[C@@H]2C[C@H](F)CN2C(=O)CNC(=O)[C@H](Cc2ccc(C(=O)O)cc2)NC(=O)[C@H](Cc2ccncc2)NC(=O)[C@H](Cc2ccc(-c3ccc(C(N)=O)cc3)cc2)NC(=O)[C@H]2[C@@H](Cc3ccc(F)cc3)CCN2C(=O)CNC(=O)[C@H](CCN)NC(=O)[C@H](CCC(N)=O)NC(=O)[C@H](Cc2cncnc2)NC(=O)[C@@](C)(CC(=O)O)NC(=O)[C@H](Cc2c[nH]c3ccccc23)NC(=O)[C@H](CO)NC(=O)C(C)(C)NC1=O [Example 379] (cyclo([Bip(4'-CONH2)][4Pal][Phe(4-COOH)]G[Pro(cis-4-F)][Trp(βS-Me,4-F)][Aib]SW[d(αMeD)][Ala(pyrimidin-5-yl)]Q[Dab]G[dPro(3S-(4-F-Bn))])) |

— patent US20260242419A1, “A CYCLIC PEPTIDE FOR TRAPPING INTERLEUKIN-1 BETA” (Merck Sharp & Dohme LLC, priority 2023, published 2026)
